Literature values as cited in patent publication EP4527389A1 (Laboratorios Farmacéuticos Rovi S.A., priority 2022, dated 2023).

Target: CYP2D6 (cytochrome P450 2D6) enzyme (Homo sapiens, UniProt P10635)
Sequence (P10635 whole entry): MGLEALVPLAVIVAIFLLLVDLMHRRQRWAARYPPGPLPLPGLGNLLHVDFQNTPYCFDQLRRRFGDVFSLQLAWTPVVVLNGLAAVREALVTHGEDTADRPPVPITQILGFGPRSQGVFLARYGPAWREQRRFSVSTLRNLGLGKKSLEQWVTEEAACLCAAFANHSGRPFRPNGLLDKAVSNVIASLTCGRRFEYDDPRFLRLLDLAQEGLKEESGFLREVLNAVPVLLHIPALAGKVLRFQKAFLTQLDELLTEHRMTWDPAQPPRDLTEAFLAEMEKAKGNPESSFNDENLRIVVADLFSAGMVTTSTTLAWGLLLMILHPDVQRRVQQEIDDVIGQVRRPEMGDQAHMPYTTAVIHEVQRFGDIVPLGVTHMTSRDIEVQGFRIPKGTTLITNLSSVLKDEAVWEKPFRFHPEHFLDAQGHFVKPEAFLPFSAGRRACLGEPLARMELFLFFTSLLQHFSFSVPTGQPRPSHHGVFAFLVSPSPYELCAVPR
Settings: three categories: strong, moderate, weak
In the case of C[C@]12CC[C@H](O)CC1=CC[C@@H]1[C@@H]2CC[C@]2(C)C(c3cccnc3)=CC[C@@H]12 [abiraterone], the “CYP2D6 enzyme inhibitor category” value is listed as “moderate inhibitor”.
For Cc1ccc(-c2cc(C(F)(F)F)nn2-c2ccc(S(N)(=O)=O)cc2)cc1 [celecoxib], the “CYP2D6 enzyme inhibitor category” value is listed as “weak inhibitor”.
In the case of CN/C(=N/CCSCc1nc[nH]c1C)NC#N [cimetidine], the “CYP2D6 enzyme inhibitor category” value is given as “weak inhibitor”.
For C[C@@H](NCCCc1cccc(C(F)(F)F)c1)c1cccc2ccccc12 [cinacalcet], the “CYP2D6 enzyme inhibitor category” value is given as “moderate inhibitor”.
For CN1C(=O)CC(=O)N(c2ccccc2)c2cc(Cl)ccc21 [clobazam], the “CYP2D6 enzyme inhibitor category” value is listed as “weak inhibitor”.
In the case of CC(C)c1nc(CN(C)C(=O)N[C@@H](CCN2CCOCC2)C(=O)N[C@H](CC[C@H](Cc2ccccc2)NC(=O)OCc2cncs2)Cc2ccccc2)cs1 [cobicistat], the “CYP2D6 enzyme inhibitor category” value is listed as “weak inhibitor”.
For CN(C)CCC[C@@]1(c2ccc(F)cc2)OCc2cc(C#N)ccc21 [escitalopram], the “CYP2D6 enzyme inhibitor category” value is listed as “weak inhibitor”.
For CC(CCc1ccccc1)NCC(O)c1ccc(O)c(C(N)=O)c1 (stereo not drawn) [labetalol], the “CYP2D6 enzyme inhibitor category” value is listed as “weak inhibitor”.
In the case of C[C@H]1CNCCc2ccc(Cl)cc21 [lorcaserin], the “CYP2D6 enzyme inhibitor category” value is listed as “moderate inhibitor”.
In the case of Nc1nc(CC(=O)Nc2ccc(CCNC[C@H](O)c3ccccc3)cc2)cs1 [mirabegron], the “CYP2D6 enzyme inhibitor category” value is listed as “moderate inhibitor”.
For Fc1ccc([C@@H]2CCNC[C@H]2COc2ccc3c(c2)OCO3)cc1 [paroxetine], the “CYP2D6 enzyme inhibitor category” value is given as “strong inhibitor”.
For C=C[C@H]1C[N@@]2CC[C@H]1C[C@@H]2[C@@H](O)c1ccnc2ccc(OC)cc12 [quinidine], the “CYP2D6 enzyme inhibitor category” value is listed as “strong inhibitor”.
For CN[C@H]1CC[C@@H](c2ccc(Cl)c(Cl)c2)c2ccccc21 [sertraline], the “CYP2D6 enzyme inhibitor category” value is given as “weak inhibitor”.
In the case of CN(C/C=C/C#CC(C)(C)C)Cc1cccc2ccccc12 [terbinafine], the “CYP2D6 enzyme inhibitor category” value is given as “strong inhibitor”.
For CCCS(=O)(=O)Nc1ccc(F)c(C(=O)c2c[nH]c3ncc(-c4ccc(Cl)cc4)cc23)c1F [vemurafenib], the “CYP2D6 enzyme inhibitor category” value is given as “weak inhibitor”.

Tested on: not given
Settings: daily paroxetine 20 mg in patients stabilized on risperidone (4 to 8 mg/day)
For Fc1ccc([C@@H]2CCNC[C@H]2COc2ccc3c(c2)OCO3)cc1 [paroxetine], the “decrease of 9-hydroxyrisperidone concentrations” value is listed as “approximately 10%”, the “increase of concentrations of the active moiety (the sum of risperidone plus 9-hydroxyrisperidone)” value is listed as “approximately 1.4 fold” and the “increase of mean plasma concentrations of risperidone” value is listed as “approximately 4 fold”.
